# In patent publication US20230203029A1 (priority 2020, published 2023):
# Where two headings read alike, the source gives them in different places.
# Tests used:
# [1] = molecular target: T1, Ba/F3 Pro B-cell line expressing BCR-human AXL kinase domain fusion protein (Homo sapiens, UniProt P30530); experiment: Assay 5 Ba/F3 cell survival assay, BCR-Axl; format: cell-based; conditions: read-out: BCR-Axl Ba/F3 IC50, 48 h, CellTiter-Glo
# T1 construct: P11274 (Breakpoint cluster region protein)
# T1 sequence (P30530 536-807 limits assumed): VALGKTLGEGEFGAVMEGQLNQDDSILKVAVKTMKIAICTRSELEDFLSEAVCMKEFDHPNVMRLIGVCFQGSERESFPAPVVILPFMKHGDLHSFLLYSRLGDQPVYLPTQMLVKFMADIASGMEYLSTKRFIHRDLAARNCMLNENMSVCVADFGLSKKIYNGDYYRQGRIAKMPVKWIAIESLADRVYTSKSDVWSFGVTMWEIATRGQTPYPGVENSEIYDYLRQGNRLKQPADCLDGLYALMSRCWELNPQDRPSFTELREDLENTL
# Procedure: (§1) Assay 5—Ba/F3 Cell Survival Assays.
# (§2) The inhibitory potencies of compounds were assessed in a Ba/F3 cell survival assay, using the Ba/F3 Pro B-cell line, recombinantly expressing a BCR-human AXL kinase domain fusion protein (pACD320/AXL, Advanced Cellular Dynamics Inc), TEL-human MERTK fusion domain (pACD1000/MERTK, Advanced Cellular Dynamics Inc), TEL-human Tyro3 fusion domain (pACD1000/TYRO3, Advanced Cellular Dynamics Inc), or control TEL-none (ACD320, Advanced Cellular Dynamics Inc) BRC-none constructs (ACD1000, Advanced Cellular Dynamics Inc). 10 ng/mL recombinant murine IL3 (R&D, 403-ML-010) was included in the media when propagating negative control TEL-none or BCR-none lines only. […] The final assay DMSO concentration was 0.25%. Compound incubations were conducted for 48 h at 37° C./5% CO2, after which cell plate was equilibrated at room temperature for 20 minutes prior to assessing viability. 15 μl of Promega CellTiter-Glo reagent (G7572) was added to each well for 2 min on an orbital shaker to induce cell lysis.
# (§3) The plate was then equilibrated for 5 min at room temperature and luminescence read on a BMG Pherastar FSX using the LUM plus optic module. […] Competition curves were then fit to a 4 parameter logistic equation including a variable slope factor to determine the IC50 (compound concentration causing a half-maximal inhibition of cell survival).
# [2] = molecular target: T2, Ba/F3 Pro B-cell line expressing TEL-human Tyro3 fusion domain (Homo sapiens, UniProt Q06418); format: cell-based; conditions: cell survival, 48 h, CellTiter-Glo
# T2 sequence (Q06418 518-790 limits assumed): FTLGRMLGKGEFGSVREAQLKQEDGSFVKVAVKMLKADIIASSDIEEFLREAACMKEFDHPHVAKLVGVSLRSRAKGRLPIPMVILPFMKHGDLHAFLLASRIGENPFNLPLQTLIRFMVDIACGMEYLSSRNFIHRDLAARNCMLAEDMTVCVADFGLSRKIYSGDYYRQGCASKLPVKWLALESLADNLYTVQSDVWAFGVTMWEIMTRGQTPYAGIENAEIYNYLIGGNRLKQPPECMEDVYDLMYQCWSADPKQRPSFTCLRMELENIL
# Procedure: as §1
# as §2, with “only. Cells were maintained in RMPI 1640 (Corning 15-040-CV) culture media containing 10% heat inactivated semi-synthetic FBS (RMBIO FGR-BBT), 2 mM L-Glutamine (Sigma, G7513), 100 IU/mL Penicillin-[…] Streptomycin (Sigma, P4333), and 500 ng/mL Puromycin (Sigma, P8833). Experiments were performed in 50 μl growth media, including the test compounds of interest, and dispensing 5000 cells/well in logarithmic-phase growth into a 384 well white Optiplate (Perkin Elmer 6007299).” for “only.”
# The plate was then equilibrated for 5 min at room temperature and luminescence read on a BMG Pherastar FSX using the LUM plus optic module. Data were normalised to measurements in the absence of competing compound (0% inhibition). Competition curves were then fit to a 4 parameter logistic equation including a variable slope factor to determine the IC50 (compound concentration causing a half-maximal inhibition of cell survival).
# [3] = molecular target: T3, Ba/F3 Pro B-cell line expressing TEL-human MERTK fusion domain (Homo sapiens, UniProt Q12866); format: cell-based
# T3 sequence (Q12866 587-858 limits assumed): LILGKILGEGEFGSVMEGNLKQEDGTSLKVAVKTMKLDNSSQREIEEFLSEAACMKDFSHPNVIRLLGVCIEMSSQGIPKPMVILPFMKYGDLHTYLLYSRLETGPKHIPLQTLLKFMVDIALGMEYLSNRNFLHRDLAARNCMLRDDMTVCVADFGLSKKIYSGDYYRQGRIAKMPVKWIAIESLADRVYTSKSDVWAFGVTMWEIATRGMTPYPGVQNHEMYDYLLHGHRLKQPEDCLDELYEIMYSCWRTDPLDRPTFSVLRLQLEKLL
# Procedure: as §1, §2, §3
# [4] = molecular target: T4, human MERTK cytoplasmic domain (Homo sapiens, UniProt Q12866); experiment: biochemical
# T4 construct: human MERTK cytoplasmic domain (Carna Biosciences 08-108); purchased Carna Biosciences 08-108
# T4 sequence (Q12866 527-999): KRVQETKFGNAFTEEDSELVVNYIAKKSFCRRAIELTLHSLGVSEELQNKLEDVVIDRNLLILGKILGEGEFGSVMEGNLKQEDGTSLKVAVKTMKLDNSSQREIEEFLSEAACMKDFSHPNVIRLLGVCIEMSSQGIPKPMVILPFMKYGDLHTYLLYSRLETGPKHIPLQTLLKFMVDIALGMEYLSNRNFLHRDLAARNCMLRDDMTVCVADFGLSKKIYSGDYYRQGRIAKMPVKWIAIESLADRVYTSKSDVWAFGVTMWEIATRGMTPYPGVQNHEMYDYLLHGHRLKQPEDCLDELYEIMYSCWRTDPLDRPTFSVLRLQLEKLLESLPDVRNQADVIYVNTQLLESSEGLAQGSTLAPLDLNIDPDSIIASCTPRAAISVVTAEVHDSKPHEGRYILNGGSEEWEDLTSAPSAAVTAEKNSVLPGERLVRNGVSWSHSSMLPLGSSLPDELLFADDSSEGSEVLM
# Procedure: Assay 1a—MERTK HTRF KinEASE-TK Assay
# The enzymatic reaction was carried out for 30 min at room temperature. 10 μL TK Antibody-Cryptate/Streptavidin-XL665 (Cisbio 610SAXLG) was then added for 60 min, including EDTA containing detection buffer (Cisbio 62SDBRDF) to stop the reaction.
# [5] = molecular target: T5, human AXL cytoplasmic domain (Homo sapiens, UniProt P30530); experiment: Assay 1b AXL HTRF KinEASE-TK assay; format: biochemical
# T5 construct: human AXL cytoplasmic domain (Thermo Fisher A31515); purchased Thermo Fisher A31515
# T5 sequence (P30530 473-894 limits assumed): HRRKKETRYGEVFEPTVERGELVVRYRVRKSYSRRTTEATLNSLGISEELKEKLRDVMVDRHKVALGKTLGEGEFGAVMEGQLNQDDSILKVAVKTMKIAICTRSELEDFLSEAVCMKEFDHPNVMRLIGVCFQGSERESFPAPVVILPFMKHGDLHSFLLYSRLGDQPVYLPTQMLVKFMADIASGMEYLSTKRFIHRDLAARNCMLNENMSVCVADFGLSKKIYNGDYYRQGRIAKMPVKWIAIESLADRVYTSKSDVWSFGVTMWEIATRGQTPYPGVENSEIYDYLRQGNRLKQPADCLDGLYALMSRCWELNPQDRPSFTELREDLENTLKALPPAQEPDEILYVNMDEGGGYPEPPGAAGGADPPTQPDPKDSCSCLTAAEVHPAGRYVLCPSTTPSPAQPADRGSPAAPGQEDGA
# Procedure: Assay 1b—AXL HTRF KinEASE-TK Assay
# Compound inhibition of human AXL cytoplasmic domain (Thermo Fisher A31515) enzymatic activity was tested via the HTRF KinEASE-tyrosine kinase (TK) kit (Cisbio 62TK0PEC). Experiments were performed in 20 μl enzymatic buffer (Cisbio 62EZBFDD) supplemented with 5 mM MgCl2, 1 mM MnCl2, 1 mM DTT, 50 nM SEB (Cisbio, 61SEBALB), with 5 nM of AXL and the test compounds of interest. […] The enzymatic reaction was carried out for 30 min at room temperature. 10 μL TK Antibody-Cryptate/Streptavidin-XL665 (Cisbio 610SAXLG) was then added for 60 min, including EDTA containing detection buffer (Cisbio 62SDBRDF) to stop the reaction. The plate was read on a BMG Pherastar FSX using a HTRF 337/620/665 optical module to excite the terbium donor at 337 nm, and record donor emission at 620 nm and acceptor fluorophore emission at 665 nm. From this the FRET ratio (acceptor 665 nm/donor 620 nm) for each data point was calculated. […] Competition curves were then fit to a 4 parameter logistic equation including a variable slope factor to determine the IC50 (compound concentration that inhibits 50% of AXL activity).
# [6] = cell survival, 48 h, CellTiter-Glo; read-out: TEL-MERTK Ba/F3 IC50
# [7] = 30 uM ATP, read-out: Assay 1a Mer IC50 30 uM ATP
"IC50 [4, 7] [nM]",IC50 [5] [nM],Compound,IC50 [1] [nM],IC50 [2] [nM],"IC50 [3, 6] [nM]","IC50 ([3]; read-out: TEL-MERTK Ba/F3 IC50; cell survival, 48 h, CellTiter-Glo) [nM]",IC50 [4] [nM]
2,20,"O=C(Nc1ccc(Oc2ccnc3cnc(N4CCN(C5COC5)CC4)cc23)cn1)c1cccn(-c2ccc(F)cc2)c1=O [Example 10.2, 1-(4-fluorophenyl)-N-[5-[[6-[4-(oxetan-3-yl)piperazin-1-yl]-1,7-naphthyridin-4-yl]oxy]-2-pyridyl]-2-oxo-pyridine-3-carboxamide]",14,394,17,–,–
29,76,"Cc1cc(NC(=O)c2cccn(-c3ccc(F)cc3)c2=O)ncc1Oc1ccnc2cnc(C(=O)NC3CCN(C)CC3)cc12 [Example 25, 4-[[6-[[1-(4-fluorophenyl)-2-oxo-pyridine-3-carbonyl]amino]-4-methyl-3-pyridyl]oxy]-N-(1-methyl-4-piperidyl)-1,7-naphthyridine-6-carboxamide]",27,91,54,–,–
19,264,"CN1CCC(c2cc3c(Oc4ccc(NC(=O)c5cccn(-c6ccc(F)cc6)c5=O)nc4)ccnc3cn2)CC1 [Example 16, 1-(4-Fluorophenyl)-N-[5-[[6-(1-methyl-4-piperidyl)-1,7-naphthyridin-4-yl]oxy]-2-pyridyl]-2-oxo-pyridine-3-carboxamide]",22,931,14,–,–
4,240,"CN1CCC(c2cc3c(Oc4ccc(NC(=O)c5cccn(-c6ccc(F)cc6)c5=O)cc4)ccnc3cn2)CC1 [Example 17, 1-(4-fluorophenyl)-N-[4-[[6-(1-methyl-4-piperidyl)-1,7-naphthyridin-4-yl]oxy]phenyl]-2-oxo-pyridine-3-carboxamide]",31,186,25,–,–
31,6,"CC(C)n1cc(C(=O)Nc2ccc(Oc3ccnc4cnc(C(=O)NCCN(C)C)cc34)cn2)c(=O)n(-c2ccc(F)cc2)c1=O [Example 27.3, N-[2-(dimethylamino)ethyl]-4-[[6-[[3-(4-fluorophenyl)-1-isopropyl-2,4-dioxo-pyrimidine-5-carbonyl]amino]-3-pyridyl]oxy]-1,7-naphthyridine-6-carboxamide]",21,631,44,–,–
11,3,"CC(C)n1cc(C(=O)Nc2ccc(Oc3ccnc4cnc(C(=O)NC5CCN(C(=O)OC(C)(C)C)CC5)cc34)cn2)c(=O)n(-c2ccc(F)cc2)c1=O [Example 27.1, tert-butyl 4-[[4-[[6-[[3-(4-fluorophenyl)-1-isopropyl-2,4-dioxo-pyrimidine-5-carbonyl]amino]-3-pyridyl]oxy]-1,7-naphthyridine-6-carbonyl]amino]piperidine-1-carboxylate]",15,881,67,–,–
3,18,"O=C(Nc1ccc(Oc2ccnc3cnc(C4=CCN(C5COC5)CC4)cc23)cn1)c1cccn(-c2ccc(F)cc2)c1=O [Example 16.2, 1-(4-fluorophenyl)-N-[5-[[6-[1-(oxetan-3-yl)-3,6-dihydro-2H-pyridin-4-yl]-1,7-naphthyridin-4-yl]oxy]-2-pyridyl]-2-oxo-pyridine-3-carboxamide]",15,144,14,–,–

Compound,"IC50 [4, 7] [nM]",IC50 [5] [nM],IC50 [1] [nM],IC50 [2] [nM],"IC50 [3, 6] [nM]","IC50 ([3]; read-out: TEL-MERTK Ba/F3 IC50; cell survival, 48 h, CellTiter-Glo) [nM]",IC50 [4] [nM]
"CC(C)n1cc(C(=O)Nc2ccc(Oc3ccnc4cnc(N5CCN(C6COC6)CC5)cc34)cn2)c(=O)n(-c2ccc(F)cc2)c1=O [Example 20.1, 3-(4-fluorophenyl)-1-isopropyl-N-[5-[[6-[4-(oxetan-3-yl)piperazin-1-yl]-1,7-naphthyridin-4-yl]oxy]-2-pyridyl]-2,4-dioxo-pyrimidine-5-carboxamide]",–,5,15,452,–,27,5
